Source: patent US5294611A, “Angiotensin II receptor blocking 2,3,6 substituted quinazolinones” (American Cyanamid Company, priority 1993, dated 1994)
Like-named read-outs stand apart in the source and are kept apart here.

Tested on: Angiotensin II (AII) vasopressor response
Test: AII Challenge: antagonism of angiotensin II vasopressor response in conscious spontaneously hypertensive rats
Type: in vivo, rat (male okamoto-Aoki SHR)
Details: for inhibition in vivo at 3 mg/kg: Rattus norvegicus, read-out: Inhibition; for Change: single SHR
Summary of the method: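 Conscious male SHR (16–20 weeks, ~330 g) cannulated under local procaine, blood pressure recorded via transducer. Angiotensin II (human) 0.05 and 0.1 ug/kg i.v. given before and after test compound dosed i.v., i.p. or orally; response measured as rise in systolic pressure (mmHg).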

Molecule `CCCCc1nc2ccc([C@H]3[C@@H]4C(=O)CC[C@@H]4ON3Cc3ccccc3)cc2c(=O)n1Cc1ccc(-c2ccccc2-c2nnn[nH]2)cc1` (relative stereo) [Example 55] has an inhibition in vivo at 3 mg/kg (iv, 0.5 h, SHR n=2, 3 mg/kg I.V., AII 0.05 mcg/kg IV, 30 min post dose) of 97%, an inhibition in vivo at 3 mg/kg (iv, 0.5 h, SHR n=2, 3 mg/kg I.V., AII 0.1 mcg/kg IV, 30 min post dose) of 95% and an inhibition in vivo at 3 mg/kg (iv, 1 h, SHR n=2, 3 mg/kg I.V., AII 0.05 mcg/kg IV, 60 min post dose) of 100%. For the same molecule, the inhibition in vivo at 3 mg/kg (iv, 1 h, SHR n=2, 3 mg/kg I.V., AII 0.1 mcg/kg IV, 60 min post dose) was 95%, the inhibition in vivo at 3 mg/kg (iv, 2 h, SHR n=2, 3 mg/kg I.V., AII 0.05 mcg/kg IV, 120 min post dose) was 97% and the inhibition in vivo at 3 mg/kg (iv, 2 h, SHR n=2, 3 mg/kg I.V., AII 0.1 mcg/kg IV, 120 min post dose) was 94%. It also gave an inhibition in vivo at 3 mg/kg (iv, 3 h, SHR n=2, 3 mg/kg I.V., AII 0.1 mcg/kg IV, 180 min post dose) of 77%, an inhibition in vivo at 3 mg/kg (iv, 4 h, SHR n=2, 3 mg/kg I.V., AII 0.05 mcg/kg IV, 240 min post dose) of 89% and an inhibition in vivo at 3 mg/kg (iv, 4 h) of 82%. The inhibition in vivo at 3 mg/kg (iv, 5 h, SHR n=2, 3 mg/kg I.V., AII 0.05 mcg/kg IV, 300 min post dose) was 61%, the inhibition in vivo at 3 mg/kg (iv, 5 h, SHR n=2, 3 mg/kg I.V., AII 0.1 mcg/kg IV, 300 min post dose) was 50% and the inhibition in vivo at 3 mg/kg (iv, […], SHR n=2, 3 mg/kg I.V., AII 0.05 mcg/kg IV, 90 min post dose) was 89%. The inhibition in vivo at 3 mg/kg (iv, […], SHR n=2, 3 mg/kg I.V., AII 0.1 mcg/kg IV, 90 min post dose) was 91%, the inhibition in vivo at 3 mg/kg (po, 0.5 h, SHR n=2, 3 mg/kg P.O., AII 0.05 mcg/kg IV, 30 min post dose) was 21% and the inhibition in vivo at 3 mg/kg (po, 0.5 h, SHR n=2, 3 mg/kg P.O., AII 0.1 mcg/kg IV, 30 min post dose) was 17%. For the same molecule, the inhibition in vivo at 3 mg/kg (po, 1 h, SHR n=2, 3 mg/kg P.O., AII 0.05 mcg/kg IV, 60 min post dose) was 7%, the inhibition in vivo at 3 mg/kg (po, 1 h, SHR n=2, 3 mg/kg P.O., AII 0.1 mcg/kg IV, 60 min post dose) was 11% and the inhibition in vivo at 3 mg/kg (po, 2 h, SHR n=2, 3 mg/kg P.O., AII 0.05 mcg/kg IV, 120 min post dose) was 21%. For the same molecule, the inhibition in vivo at 3 mg/kg (po, 2 h, SHR n=2, 3 mg/kg P.O., AII 0.1 mcg/kg IV, 120 min post dose) was 39%, the inhibition in vivo at 3 mg/kg (po, 3 h, SHR n=2, 3 mg/kg P.O., AII 0.05 mcg/kg IV, 180 min post dose) was 14% and the inhibition in vivo at 3 mg/kg (po, 3 h, SHR n=2, 3 mg/kg P.O., AII 0.1 mcg/kg IV, 180 min post dose) was 28%. The inhibition in vivo at 3 mg/kg (po, […], SHR n=2, 3 mg/kg P.O., AII 0.05 mcg/kg IV, 90 min post dose) was 14%, the inhibition in vivo at 3 mg/kg (po, […], SHR n=2, 3 mg/kg P.O., AII 0.1 mcg/kg IV, 90 min post dose) was 17% and the “Average Change” value (SHR n=2, 3 mg/kg I.V., AII 0.05 mcg/kg IV, 30 min post dose) was 1.5 mmHg. For the same molecule, the “Average Change” value (SHR n=2, 3 mg/kg I.V., AII 0.05 mcg/kg IV, 60 min post dose) was 0 mmHg, the “Average Change” value (SHR n=2, 3 mg/kg I.V., AII 0.05 mcg/kg IV, 90 min post dose) was 5 mmHg and the “Average Change” value (SHR n=2, 3 mg/kg I.V., AII 0.05 mcg/kg IV, 120 min post dose) was 1.5 mmHg. The “Average Change” value (SHR n=2, 3 mg/kg I.V., AII 0.05 mcg/kg IV, 180 min post dose) was 2.5 mmHg, the “Average Change” value (SHR n=2, 3 mg/kg I.V., AII 0.05 mcg/kg IV, 240 min post dose) was 5 mmHg and the “Average Change” value (SHR n=2, 3 mg/kg I.V., AII 0.05 mcg/kg IV, 300 min post dose) was 17.5 mmHg. For the same molecule, the “Average Change” value (SHR n=2, 3 mg/kg I.V., AII 0.1 mcg/kg IV, 30 min post dose) was 2.5 mmHg, the “Average Change” value (SHR n=2, 3 mg/kg I.V., AII 0.1 mcg/kg IV, 60 min post dose) was 2.5 mmHg and the “Average Change” value (SHR n=2, 3 mg/kg I.V., AII 0.1 mcg/kg IV, 90 min post dose) was 5 mmHg. For the same molecule, the “Average Change” value (SHR n=2, 3 mg/kg I.V., AII 0.1 mcg/kg IV, 120 min post dose) was 3.5 mmHg, the “Average Change” value (SHR n=2, 3 mg/kg I.V., AII 0.1 mcg/kg IV, 180 min post dose) was 12.5 mmHg and the “Average Change” value (SHR n=2, 3 mg/kg I.V., AII 0.1 mcg/kg IV, 240 min post dose) was 10 mmHg. For the same molecule, the “Average Change” value (SHR n=2, 3 mg/kg I.V., AII 0.1 mcg/kg IV, 300 min post dose) was 27.5 mmHg, the “Average Change” value (SHR n=2, 3 mg/kg P.O., AII 0.05 mcg/kg IV, 30 min post dose) was 27.5 mmHg and the “Average Change” value (SHR n=2, 3 mg/kg P.O., AII 0.05 mcg/kg IV, 60 min post dose) was 32.5 mmHg. For the same molecule, the “Average Change” value (SHR n=2, 3 mg/kg P.O., AII 0.05 mcg/kg IV, 90 min post dose) was 30 mmHg, the “Average Change” value (SHR n=2, 3 mg/kg P.O., AII 0.05 mcg/kg IV, 120 min post dose) was 27.5 mmHg and the “Average Change” value (SHR n=2, 3 mg/kg P.O., AII 0.05 mcg/kg IV, 180 min post dose) was 30 mmHg. For the same molecule, the “Average Change” value (SHR n=2, 3 mg/kg P.O., AII 0.1 mcg/kg IV, 30 min post dose) was 37.5 mmHg, the “Average Change” value (SHR n=2, 3 mg/kg P.O., AII 0.1 mcg/kg IV, 60 min post dose) was 40 mmHg and the “Average Change” value (SHR n=2, 3 mg/kg P.O., AII 0.1 mcg/kg IV, 90 min post dose) was 37.5 mmHg. The “Average Change” value (SHR n=2, 3 mg/kg P.O., AII 0.1 mcg/kg IV, 120 min post dose) was 27.5 mmHg, the “Average Change” value (SHR n=2, 3 mg/kg P.O., AII 0.1 mcg/kg IV, 180 min post dose) was 32.5 mmHg and the Change (3 mg/kg I.V., AII 0.05 mcg/kg IV, 60 min post dose) was 0 mmHg. The Change (3 mg/kg I.V., AII 0.05 mcg/kg IV, 90 min post dose) was 5 mmHg, the Change (3 mg/kg I.V., AII 0.05 mcg/kg IV, 240 min post dose) was 5 mmHg and the Change (3 mg/kg I.V., AII 0.1 mcg/kg IV, 90 min post dose) was 5 mmHg. For the same molecule, the Change (3 mg/kg I.V., AII 0.1 mcg/kg IV, 240 min post dose) was 10 mmHg and the Change (3 mg/kg P.O., AII 0.1 mcg/kg IV, 60 min post dose) was 40 mmHg.
